Counter-ions that a name gives are not always drawn.
Key:
[1] = molecular target: T1, PTP1B (Homo sapiens, UniProt P18031); assay: PTP Enzyme Assay (DiFMUP), PTP1B; format: biochemical; settings: 5 μM DiFMUP substrate; catalytic core of human recombinant PTP; triplicates; read-out: IC50 value in respect of PTP1B
T1 construct: using the catalytic core of a human recombinant PTP as the enzyme; made in house
T1 sequence (P18031 3-277 limits assumed): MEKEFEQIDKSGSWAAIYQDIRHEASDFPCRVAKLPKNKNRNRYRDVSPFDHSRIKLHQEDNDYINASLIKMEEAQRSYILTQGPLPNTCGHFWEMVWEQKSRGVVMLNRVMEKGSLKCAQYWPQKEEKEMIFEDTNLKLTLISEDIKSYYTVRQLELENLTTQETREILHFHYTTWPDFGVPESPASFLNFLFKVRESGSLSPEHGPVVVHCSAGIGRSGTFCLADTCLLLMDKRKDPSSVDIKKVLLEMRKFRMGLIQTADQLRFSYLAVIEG
Experimental: (§1) The PTP Enzyme Assay aims at determining the extent of inhibition of PTPs, e.g. of PTP1B, SHP-1, SHP-2, GLEPP-1 or PTP-H1 in the presence of a test compound of formula (I) or (I′). The inhibition is illustrated by IC50 values which denote the concentration of test compound necessary to achieve an inhibition of 50% of said PTP's using the following concentration of the PTP substrate DiFMUP: • 5 μM DiFMUP for PTP1B and PTP-H1; • 20 μM DiFMUP for SHP-1 and SHP-2. • 30 μM DiFMUP for GLEPP-1. a) PTPs Cloning
The cloning and expression of the catalytic domain e.g. of PTP1B, may be performed as described in J. Biol. Chem. 2000, 275(13), pp 9792-9796.
(§2) The DiFMUP assay allows to follow the dephosphorylation of DiFMUP (6,8-DiFluoro-4-MethylUmbelliferyl Phosphate)—which is the PTP substrate—mediated by PTP into its stable hydrolysis product, i.e. DiFMU (6,8-difluoro-7-hydroxy coumarin). Due to its rather low pKa and its high quantum yield, DiFMU allows to measure both acidic and alkaline phosphatase activities with a great sensitivity.
(§3) Assays were performed in a 96 well plate format, using the catalytic core of a human recombinant PTP as the enzyme and 6,8-DiFluoro-4-MethylUmbelliferyl Phosphate (DiFMUP, Molecular Probes, D-6567) as a substrate. Compounds to be tested were dissolved in 100% DMSO at a concentration of 2 mM. Subsequent dilutions of the test compounds (to yield a concentration of 100, 30, 10, 3, 1, 0.3, 0.1, 0.03, 0.01, 0.001 μM) wore performed in 60% DMSO manually. 8 μl of diluted compound or vehicle (60% DMSO=control) was distributed to a black Costar 96 well plate. 42 μl of human recombinant PTP enzyme diluted in assay buffer (20 mM Tris HCl pH 7.5, 0.01% IGEPAL CA-630, 0.1 mM ethylenediaminetetracetic acid, 1 mM DL-Dithiothreitol) can be added to the dilutions of compound or vehicle (distributed to a black Costar 96 well plate), followed by 50 μl of DiFMUP diluted in the assay buffer. The reaction ran for 30 minutes at room temperature before reading the fluorescence intensity (integral or intensity) on a Perkin-Elmer Victor 2 spectrofluorimeter (excitation of 6,8-difluoro-7-hydroxy coumarin is at 355 nm, the emission at 460 nm, for 0.1 s). The percentage of inhibition is determined by measuring the relative fluorescence ion absence of a test compound (PTP inhibitor), i.e. with the solvent alone (5% DMSO). The IC50 values for inhibition were determined in triplicates.

[2] = molecular target: T2, GLEPP-1 (Homo sapiens, UniProt Q16827); assay: PTP Enzyme Assay (DiFMUP), GLEPP-1; format: biochemical; settings: 30 μM DiFMUP substrate; catalytic core of human recombinant PTP; triplicates; read-out: IC50 value in respect of GLEPP-1
T2 construct: using the catalytic core of a human recombinant PTP as the enzyme
T2 sequence (Q16827 938-1195 limits assumed): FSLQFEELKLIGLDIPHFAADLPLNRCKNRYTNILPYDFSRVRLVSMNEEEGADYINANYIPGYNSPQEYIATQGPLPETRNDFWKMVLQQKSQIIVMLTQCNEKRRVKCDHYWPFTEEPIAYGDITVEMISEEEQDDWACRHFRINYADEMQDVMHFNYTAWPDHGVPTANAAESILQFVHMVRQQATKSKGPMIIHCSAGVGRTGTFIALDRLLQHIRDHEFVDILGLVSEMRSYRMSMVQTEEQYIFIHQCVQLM
Experimental: as §1, §2, §3

[3] = molecular target: T3, SHP-1 (Homo sapiens, UniProt P29350); assay: PTP Enzyme Assay (DiFMUP), SHP-1; format: biochemical; settings: 20 μM DiFMUP substrate; catalytic core of human recombinant PTP; triplicates; read-out: IC50 value in respect of SHP-1
T3 construct: using the catalytic core of a human recombinant PTP as the enzyme
T3 sequence (P29350 244-515 limits assumed): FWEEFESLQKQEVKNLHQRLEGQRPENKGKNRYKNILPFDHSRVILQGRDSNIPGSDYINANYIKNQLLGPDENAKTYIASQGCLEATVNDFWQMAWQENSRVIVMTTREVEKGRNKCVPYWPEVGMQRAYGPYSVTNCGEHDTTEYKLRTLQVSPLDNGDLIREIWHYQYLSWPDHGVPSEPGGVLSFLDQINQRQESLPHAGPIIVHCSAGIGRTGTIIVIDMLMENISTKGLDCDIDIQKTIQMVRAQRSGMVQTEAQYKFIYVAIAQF
Experimental: as §1, §2, §3

[4] = molecular target: T4, SHP-2 (Homo sapiens, UniProt Q06124); assay: PTP Enzyme Assay (DiFMUP), SHP-2; format: biochemical; settings: 20 μM DiFMUP substrate; catalytic core of human recombinant PTP; triplicates; read-out: IC50 value in respect of SHP-2
T4 construct: using the catalytic core of a human recombinant PTP as the enzyme
T4 sequence (Q06124 247-517 limits assumed): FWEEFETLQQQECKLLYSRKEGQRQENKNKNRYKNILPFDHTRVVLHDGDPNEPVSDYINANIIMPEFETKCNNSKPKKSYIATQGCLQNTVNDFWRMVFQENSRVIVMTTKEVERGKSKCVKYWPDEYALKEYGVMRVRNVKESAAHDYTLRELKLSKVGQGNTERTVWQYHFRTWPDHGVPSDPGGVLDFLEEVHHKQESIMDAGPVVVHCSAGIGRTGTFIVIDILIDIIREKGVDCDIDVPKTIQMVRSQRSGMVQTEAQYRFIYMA
Experimental: as §1, §2, §3

[5] = molecular target: T5, PTP-H1 (Homo sapiens, UniProt P26045); assay: PTP Enzyme Assay (DiFMUP), PTP-H1; format: biochemical; settings: 5 μM DiFMUP substrate; catalytic core of human recombinant PTP; triplicates; read-out: IC50 value in respect of PTP-H1
T5 construct: using the catalytic core of a human recombinant PTP as the enzyme
T5 sequence (P26045 646-901 limits assumed): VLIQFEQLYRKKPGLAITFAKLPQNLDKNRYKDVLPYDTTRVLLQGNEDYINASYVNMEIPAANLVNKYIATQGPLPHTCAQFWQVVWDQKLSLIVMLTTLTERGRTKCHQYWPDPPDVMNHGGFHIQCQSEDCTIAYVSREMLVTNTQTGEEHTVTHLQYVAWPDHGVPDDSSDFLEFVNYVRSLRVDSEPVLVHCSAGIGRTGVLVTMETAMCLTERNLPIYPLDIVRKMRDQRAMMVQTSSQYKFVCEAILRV
Experimental: as §1, §2, §3

[6] = tested on: db/db mice; assay: In vivo assay in db/db mice (postprandial glycemia); settings: 4 hrs after drug administration, expressed as a percentage of control (vehicle, Group 1)
Experimental: The following assay aims at determining the anti-diabetic effect of the test compounds of formula (I) or (I′) in a model of postprandial glycemia in db/db mice, in vivo.
A total of 18 db/db mice (about 8-9 weeks; obtained from IFFACREDO, l'Arbreste, France) were fasted during 20 hours.
3 groups, each consisting of 6 animals were formed: • Group 1: The animals were administered (per os) a dose of 10 mL/kg of vehicle (control). • Group 2: The animals were administered (per os) a dose of 30 mg/kg of the test compound according to formula (I) solubilized in the vehicle. • Group 3: The animals were administered (per os) a dose of 100 mg/kg of the test compound according to formula (I) solubilized in the vehicle.
After oral administration of the compounds of formula (I) or (I′) solubilized or suspended in CarboxyMethylCellulose (0.5%), Tween 20 (0.25%) in water as vehicle, the animals had access to commercial food (D04, UAR, Villemoisson/Orge, France) ad libitum. The diabetic state of the mice was verified by determining the blood glucose level before fasting. Blood glucose and serum insulin levels were then determined 4 hrs after drug administration.
The determination of the blood glucose level was performed using a glucometer (Ascensia Dex^2, Bayer, ref 3956C).
The determination of the Insulin level was performed using an ELISA kit (Mercodia, ref 10-1149-10).
Changes in blood glucose and serum insulin of drug treated mice were expressed as a percentage of control (group 1: vehicle treated mice).

## CCCCCCCCC#Cc1ccc(CN(C(=O)CCC2CCCC2)c2ccc(O)c(C(=O)O)c2)cc1 [Example 2, 5-[(3-cyclopentylpropanoyl)(4-dec-1-ynylbenzyl)amino]-2-hydroxybenzoic acid. N-methyl-D-glucamine (i.e. 1-deoxy-1-(methylamino)glucitol) salt]
[1]
  IC50: 490 nM
[2]
  IC50: 610 nM
[3]
  IC50: 1200 nM
[4]
  IC50: 490 nM
[5]
  IC50: 3370 nM
[6]; Group 2: 30 mg/kg per os
  Decrease in blood glucose: 28%
  Decrease in serum insulin: 84%
[6]; Group 3: 100 mg/kg per os
  Decrease in blood glucose: 58%
  Decrease in serum insulin: 88%

## CCCCCCCCC#Cc1ccc(CN(Cc2ccc(OCC(=O)O)c(C(=O)O)c2)C(=O)/C=C/c2ccccc2)cc1 [Example 16, 2-(carboxymethoxy)-5-({(4-dec-1-ynylbenzyl)[(2E)-3-3-phenylprop-2-enoyl]amino}methyl)benzoic acid]
[1]
  IC50: 290 nM
[2]
  IC50: 210 nM
[3]
  IC50: 1600 nM
[4]
  IC50: 1400 nM
[5]
  IC50: 5700 nM

## CCCCc1ccc(C#Cc2ccc(CN(C(=O)Cc3cccs3)c3ccc(F)c(C(=O)O)c3)cc2)cc1 [Example 68, 5-[{4-[(4-butylphenyl)ethynyl]benzyl}(2-thienylacetyl)amino]-2-fluorobenzoic acid, N-methyl-D-glucamine (i.e. 1-deoxy-1-(methylamino)glucitol) salt]
[1]
  IC50: 490 nM
[2]
  IC50: 1580 nM
[3]
  IC50: 3700 nM
[4]
  IC50: 1900 nM
[5]
  IC50: 9900 nM

## CCCCc1ccc(C#Cc2ccc(CN(C(=O)C(C)(C)C)c3ccc(C(=O)O)c(O)c3)cc2)cc1 [Example 76, 4-[{4-[(4-butylphenyl)ethynyl]benzyl}(2,2-dimethylpropanoyl)amino]-2-hydroxybenzoic acid, N-methyl-D-glucamine (i.e. 1-deoxy-1-(methylamino)glucitol) salt]
[1]
  IC50: 970 nM
[2]
  IC50: 990 nM
[3]
  IC50: 3000 nM
[4]
  IC50: 2200 nM
[5]
  IC50: 6300 nM
